Test results taken from PubChem BioAssay AID256 (DTP/NCI, 2004).
Several values for one entry are separate records, joined by “and”; a condition that tells them apart may be missing. Equal entries are not always repeated. Toxic doses and inconclusive results are not listed. Rule for the calls: active = survival T/C of 150% or more; inactive = T/C below 125% in these data.

Tested on: CD2F1 mice, L1210 leukemia ip, survival T/C
Assay: NCI In Vivo Anticancer Drug Screen. Data for tumor model L1210 Leukemia (intraperitoneal) in CD2F1 (CDF1) mice
Settings: endpoint: mean survival time, higher = longer survival
Procedure, shortened: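 In this screen, transplantable tumors were grown in mice given either the compound or its vehicle. Results were expressed as the treated measurement relative to the control measurement.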

Measured: T/C

Cc1cc(NCCCCCCNc2cc(C)nc3ccc(N)cc23)c2cc(N)ccc2n1
inactive: dose: 0.16 mg/kg/injection, schedule: Q08HX006 (iv), vehicle: water 103 % of control | dose: 0.31 mg/kg/injection, schedule: Q08HX006 (iv), vehicle: water 104 % of control | dose: 0.4 mg/kg/injection, schedule: Q08HX009 (ip), vehicle: water 105 % of control | dose: 0.6 mg/kg/injection, schedule: Q01DX009 (ip), vehicle: water 98 % of control | dose: 0.6 mg/kg/injection, schedule: Q08HX009 (iv), vehicle: water 88 % of control | dose: 0.63 mg/kg/injection, schedule: Q08HX006 (iv), vehicle: water 92 % of control | dose: 0.8 mg/kg/injection, schedule: Q08HX009 (ip), vehicle: water 101 % of control | dose: 1.1 mg/kg/injection, schedule: Q01DX005 (iv), vehicle: water 104 % of control | dose: 1.2 mg/kg/injection, schedule: Q01DX009 (ip), vehicle: water 97 % of control | dose: 1.25 mg/kg/injection, schedule: Q08HX006 (iv), vehicle: water 103 % of control | dose: 1.3 mg/kg/injection, schedule: Q08HX009 (iv), vehicle: water 94 % of control | dose: 1.4 mg/kg/injection, schedule: Q01DX005 (iv), vehicle: water 98 % of control | dose: 1.56 mg/kg/injection, schedule: Q01DX009 (ip), vehicle: water 103 % of control and 111 % of control | dose: 1.6 mg/kg/injection, schedule: Q08HX009 (ip), vehicle: water 104 % of control | dose: 1.9 mg/kg/injection, schedule: Q01DX005 (iv), vehicle: water 101 % of control | dose: 1.9 mg/kg/injection, schedule: Q08HX009 (iv), vehicle: saline with Tween-80 92 % of control | dose: 2.4 mg/kg/injection, schedule: Q01DX009 (ip), vehicle: saline with Tween-80 114 % of control and 116 % of control | dose: 2.4 mg/kg/injection, schedule: Q01DX009 (ip), vehicle: water 111 % of control | dose: 2.5 mg/kg/injection, schedule: Q01DX005 (iv), vehicle: water 103 % of control | dose: 2.5 mg/kg/injection, schedule: Q08HX006 (iv), vehicle: water 105 % of control | dose: 2.5 mg/kg/injection, schedule: Q08HX009 (ip), vehicle: saline with Tween-80 119 % of control | dose: 2.5 mg/kg/injection, schedule: Q08HX009 (iv), vehicle: water 93 % of control | dose: 2.53 mg/kg/injection, schedule: Q01DX005 (iv), vehicle: water 95 % of control | dose: 2.58 mg/kg/injection, schedule: Q01DX005 (iv), vehicle: saline with Tween-80 101 % of control | dose: 3.0 mg/kg/injection, schedule: Q01DX009 (ip), vehicle: water 95 % of control and 107 % of control | dose: 3.13 mg/kg/injection, schedule: Q01DX009 (ip), vehicle: water 113 % of control and 124 % of control | dose: 3.2 mg/kg/injection, schedule: Q08HX009 (ip), vehicle: water 112 % of control | dose: 3.38 mg/kg/injection, schedule: Q01DX005 (iv), vehicle: water 100 % of control | dose: 3.38 mg/kg/injection, schedule: Q01DX009 (sc), vehicle: water 98 % of control | dose: 3.4 mg/kg/injection, schedule: Q01DX005 (iv), vehicle: water 101 % of control | dose: 3.44 mg/kg/injection, schedule: Q01DX009 (ip), vehicle: saline with Tween-80 114 % of control | dose: 3.44 mg/kg/injection, schedule: Q01DX009 (sc), vehicle: saline with Tween-80 100 % of control | dose: 3.7 mg/kg/injection, schedule: Q01DX009 (ip), vehicle: saline with Tween-80 117 % of control | dose: 3.8 mg/kg/injection, schedule: Q08HX006 (iv), vehicle: saline with Tween-80 101 % of control | dose: 3.8 mg/kg/injection, schedule: Q08HX009 (iv), vehicle: saline with Tween-80 88 % of control | dose: 4.51 mg/kg/injection, schedule: Q01DX009 (ip), vehicle: water 113 % of control | dose: 4.59 mg/kg/injection, schedule: Q01DX009 (ip), vehicle: saline with Tween-80 115 % of control | dose: 4.59 mg/kg/injection, schedule: Q01DX009 (sc), vehicle: saline with Tween-80 96 % of control | dose: 4.7 mg/kg/injection, schedule: Q01DX009 (ip), vehicle: saline with Tween-80 121 % of control | dose: 4.8 mg/kg/injection, schedule: Q01DX009 (ip), vehicle: water 114 % of control | dose: 5.0 mg/kg/injection, schedule: Q08HX006 (iv), vehicle: water 100 % of control | dose: 5.3 mg/kg/injection, schedule: Q01DX009 (ip), vehicle: water 114 % of control and 97 % of control | dose: 6.12 mg/kg/injection, schedule: Q01DX005 (iv), vehicle: saline with Tween-80 97 % of control | dose: 6.12 mg/kg/injection, schedule: Q01DX009 (ip), vehicle: saline with Tween-80 119 % of control | dose: 6.12 mg/kg/injection, schedule: Q01DX009 (sc), vehicle: saline with Tween-80 97 % of control
